Measurements from ChEMBL document CHEMBL3885881, “DrugMatrix”.

Species on record: Rattus norvegicus
Test: DrugMatrix - Regimen: Daily Repeat
Type: toxicity, organism-based, Sprague-Dawley
Set-up: regimen Daily Repeat, gender Male, age 6-8 weeks
Details: in vivo, ip, 60 mg/kg, route intraperitoneal, dose level High, vehicle 100 % PBS; for BASOPHIL / EOSINOPHIL / ERYTHROCYTE COUNT / HEMATOCRIT / HEMOGLOBIN / LEUKOCYTE COUNT / LYMPHOCYTE / MEAN CORPUSCULAR HEMOGLOBIN / MEAN CORPUSCULAR HEMOGLOBIN CONCENTRATION / MEAN CORPUSCULAR VOLUME / MONOCYTE / NEUTROPHIL / PLATELET COUNT: tissue Blood; for ALANINE AMINOTRANSFERASE / ALBUMIN / ALKALINE PHOSPHATASE / ASPARTATE AMINOTRANSFERASE / BLOOD UREA NITROGEN / CARBON DIOXIDE / CHLORIDE / CHOLESTEROL / CREATINE PHOSPHOKINASE / CREATININE / GLUCOSE / LACTATE DEHYDROGENASE / LIPASE / PHOSPHORUS / POTASSIUM / SODIUM / TOTAL BILIRUBIN / TOTAL PROTEIN / URIC ACID: tissue Plasma

In the case of C[C@H]1C(=O)O[C@@H]2CCN3CC=C(COC(=O)[C@](C)(O)[C@]1(C)O)[C@H]23 [MONOCROTALINE], the BASOPHIL (72 h, time 3 day) is reported as 1.7%, the EOSINOPHIL (72 h, time 3 day) is reported as 1% and the “ERYTHROCYTE COUNT” value (72 h, time 3 day) is reported as 6.77 x10E6/uL. The HEMATOCRIT (72 h, time 3 day) was 46.53%, the HEMOGLOBIN (72 h, time 3 day) was 14.7 G/DL and the “LEUKOCYTE COUNT” value (72 h, time 3 day) was 8.87 x10E3/uL. The LYMPHOCYTE (72 h, time 3 day) was 84.3%, the “MEAN CORPUSCULAR HEMOGLOBIN” value (72 h, time 3 day) was 21.73 pg and the “MEAN CORPUSCULAR HEMOGLOBIN CONCENTRATION” value (72 h, time 3 day) was 31.63 G/DL. For the same compound, the “MEAN CORPUSCULAR VOLUME” value (72 h, time 3 day) was 68.73 fL, the MONOCYTE (72 h, time 3 day) was 1.9% and the NEUTROPHIL (72 h, time 3 day) was 9.57%. The “PLATELET COUNT” value (72 h, time 3 day) was 1156.67 x10E3/uL, the “ALANINE AMINOTRANSFERASE” value (72 h, time 3 day) was 33.67 u/L and the ALBUMIN (72 h, time 3 day) was 4.27 G/DL. For the same compound, the “ALKALINE PHOSPHATASE” value (72 h, time 3 day) was 425.33 u/L, the “ASPARTATE AMINOTRANSFERASE” value (72 h, time 3 day) was 77.33 u/L and the “BLOOD UREA NITROGEN” value (72 h, time 3 day) was 16 mg/dL. For the same compound, the “CARBON DIOXIDE” value (72 h, time 3 day) was 30 mmol/L, the CHLORIDE (72 h, time 3 day) was 104.33 MEQ/L and the CHOLESTEROL (72 h, time 3 day) was 79 mg/dL. The “CREATINE PHOSPHOKINASE” value (72 h, time 3 day) was 394.33 u/L, the CREATININE (72 h, time 3 day) was 0.47 mg/dL and the GLUCOSE (72 h, time 3 day) was 166.33 mg/dL. For the same compound, the “LACTATE DEHYDROGENASE” value (72 h, time 3 day) was 66 u/L, the LIPASE (72 h, time 3 day) was 14.67 u/L and the PHOSPHORUS (72 h, time 3 day) was 12.57 mg/dL. For the same compound, the POTASSIUM (72 h, time 3 day) was 7.2 MEQ/L, the SODIUM (72 h, time 3 day) was 148.33 MEQ/L and the “TOTAL BILIRUBIN” value (72 h, time 3 day) was 0.47 mg/dL. The “TOTAL PROTEIN” value (72 h, time 3 day) was 6.57 G/DL, the “URIC ACID” value (72 h, time 3 day) was 1.77 mg/dL and the BASOPHIL (120 h, time 5 day) was 0.4%. The EOSINOPHIL (120 h, time 5 day) was 0.6%, the “ERYTHROCYTE COUNT” value (120 h, time 5 day) was 7.1 x10E6/uL and the HEMATOCRIT (120 h, time 5 day) was 48.3%. The HEMOGLOBIN (120 h, time 5 day) was 14.93 G/DL, the “LEUKOCYTE COUNT” value (120 h, time 5 day) was 10.69 x10E3/uL and the LYMPHOCYTE (120 h, time 5 day) was 91.33%. The “MEAN CORPUSCULAR HEMOGLOBIN” value (120 h, time 5 day) was 21.03 pg, the “MEAN CORPUSCULAR HEMOGLOBIN CONCENTRATION” value (120 h, time 5 day) was 30.93 G/DL and the “MEAN CORPUSCULAR VOLUME” value (120 h, time 5 day) was 68.03 fL. For the same compound, the MONOCYTE (120 h, time 5 day) was 1.63%, the NEUTROPHIL (120 h, time 5 day) was 5.2% and the “PLATELET COUNT” value (120 h, time 5 day) was 1323.67 x10E3/uL. For the same compound, the “ALANINE AMINOTRANSFERASE” value (120 h, time 5 day) was 48 u/L, the ALBUMIN (120 h, time 5 day) was 4.1 G/DL and the “ALKALINE PHOSPHATASE” value (120 h, time 5 day) was 488 u/L. For the same compound, the “ASPARTATE AMINOTRANSFERASE” value (120 h, time 5 day) was 69 u/L, the “BLOOD UREA NITROGEN” value (120 h, time 5 day) was 13 mg/dL and the “CARBON DIOXIDE” value (120 h, time 5 day) was 30 mmol/L. For the same compound, the CHLORIDE (120 h, time 5 day) was 108 MEQ/L, the CHOLESTEROL (120 h, time 5 day) was 65.67 mg/dL and the “CREATINE PHOSPHOKINASE” value (120 h, time 5 day) was 139 u/L. The CREATININE (120 h, time 5 day) was 0.23 mg/dL, the GLUCOSE (120 h, time 5 day) was 152.33 mg/dL and the “LACTATE DEHYDROGENASE” value (120 h, time 5 day) was 44.67 u/L. It also gave an LIPASE (120 h, time 5 day) of 13.33 u/L, a PHOSPHORUS (120 h, time 5 day) of 14.7 mg/dL and a POTASSIUM (120 h, time 5 day) of 6.77 MEQ/L. For the same compound, the SODIUM (120 h, time 5 day) was 155 MEQ/L, the “TOTAL BILIRUBIN” value (120 h, time 5 day) was 0.2 mg/dL and the “TOTAL PROTEIN” value (120 h, time 5 day) was 6.33 G/DL. For the same compound, the “URIC ACID” value (120 h, time 5 day) was 1.63 mg/dL, the BASOPHIL ([…], time 14 day) was 0.38% and the EOSINOPHIL ([…], time 14 day) was 0.48%. For the same compound, the “ERYTHROCYTE COUNT” value ([…], time 14 day) was 8.25 x10E6/uL, the HEMATOCRIT ([…], time 14 day) was 49.54% and the HEMOGLOBIN ([…], time 14 day) was 16.32 G/DL. The “LEUKOCYTE COUNT” value ([…], time 14 day) was 14.35 x10E3/uL, the LYMPHOCYTE ([…], time 14 day) was 85.94% and the “MEAN CORPUSCULAR HEMOGLOBIN” value ([…], time 14 day) was 19.8 pg. The “MEAN CORPUSCULAR HEMOGLOBIN CONCENTRATION” value ([…], time 14 day) was 32.96 G/DL, the “MEAN CORPUSCULAR VOLUME” value ([…], time 14 day) was 60.04 fL and the MONOCYTE ([…], time 14 day) was 1.94%. For the same compound, the NEUTROPHIL ([…], time 14 day) was 9.64%, the “PLATELET COUNT” value ([…], time 14 day) was 1232.8 x10E3/uL and the “ALANINE AMINOTRANSFERASE” value ([…], time 14 day) was 40.6 u/L. The ALBUMIN ([…], time 14 day) was 4.46 G/DL, the “ALKALINE PHOSPHATASE” value ([…], time 14 day) was 403.4 u/L and the “ASPARTATE AMINOTRANSFERASE” value ([…], time 14 day) was 73.6 u/L. For the same compound, the “BLOOD UREA NITROGEN” value ([…], time 14 day) was 15.2 mg/dL, the “CARBON DIOXIDE” value ([…], time 14 day) was 30.8 mmol/L and the CHLORIDE ([…], time 14 day) was 102.2 MEQ/L. The CHOLESTEROL ([…], time 14 day) was 89.2 mg/dL, the “CREATINE PHOSPHOKINASE” value ([…], time 14 day) was 155.8 u/L and the CREATININE ([…], time 14 day) was 0.44 mg/dL. The GLUCOSE ([…], time 14 day) was 145 mg/dL, the “LACTATE DEHYDROGENASE” value ([…], time 14 day) was 118.6 u/L and the LIPASE ([…], time 14 day) was 18.2 u/L. It also gave a PHOSPHORUS ([…], time 14 day) of 9.42 mg/dL, a POTASSIUM ([…], time 14 day) of 6.64 MEQ/L and an SODIUM ([…], time 14 day) of 148.8 MEQ/L. For the same compound, the “TOTAL BILIRUBIN” value ([…], time 14 day) was 0.56 mg/dL, the “TOTAL PROTEIN” value ([…], time 14 day) was 7.2 G/DL and the “URIC ACID” value ([…], time 14 day) was 2.16 mg/dL.
